Reference: US20250388607A1, “A BROMOTAG-BASED TOOLKIT FOR RAPID INDUCTION OF CHEMICALLY INDUCED PROXIMITY” (THE BOARD OF TRUSTEES OF THE LELAND STANFORD JUNIOR …, priority 2024, published 2025)
“Also recorded” adds a separate entry of the source.

What was measured:
BromoTag = target: T1, BromoTag (Homo sapiens, UniProt O60885, L387A); assay: NanoBiT assay, BromoTag homodimerization, tag expressed alone; type: cell-based; conditions: all orientations of LgBiT and SmBiT tags; FIGS. 4A-4D and 5; high background
T1 construct: BRD4 BD2 L387A mutant tag; expressed in transfected cells; host or cells: HEK293T
From the text: (§1) FKBP/BromoTag NanoBiT-tagged construct cloning. FKBP12F36V and BromoTag sequences were cloned using Gibson assembly into pBiT1.1-C [TK/LgBiT], pBiT2.1-C [TK/SmBiT], pBiT1.1-N [TK/LgBiT], and pBiT2.1-N [TK/SmBiT] vectors included in the NanoBiT® PPI MCS Starter System kit (Promega #N2014). […] pBiT1.1 and pBiT2.1 vectors were linearized at EcoRI and NheI cut sites, inserts were amplified with PCR, and constructs were ligated using NEBuilder® HiFi DNA Assembly Master Mix.
(§2) NanoBiT assay. 15k HEK293T cells per well were plated in 92 ul DMEM+10% FBS in opaque 96-well plates and allowed to adhere overnight, approximately 18-24 hours. HEK293T cells were subsequently transfected with pBiT1.1 (LgBiT-tagged) or pBiT2.1 (SmBiT-tagged) FKBP12F36V and/or BromoTag vectors, using TransIT-LT1 transfection reagent (Mirus #MIR2300) and Opti-MEM (Gibco #31985062). After 24 hours, 25 ul Nano-Glo® Live Cell Reagent was added to each well to measure dimerization signal. Using a PHERAstar FSX, baseline luminescence was measured for five or six cycles (approximately eight to ten minutes). Test dimerizer compounds freshly diluted in DMEM+10% FBS were then manually spiked in and induced luminescence was measured continuously for up to two hours. All summary figures were generated with GraphPad Prism. Data for the NanoBit assay is provided in FIGS. 1A-1D, 2A-2B, 3A-3B, 4A-4D, 5, 6A-6B, 7, and 12A-12C.

FKBP12F36V and BromoTag = target: T2, FKBP12F36V and BromoTag (Homo sapiens, UniProt O60885+P62942, F37V/L387A); assay: NanoBiT assay, FKBP/BromoTag heterodimerization, tags expressed alone; type: cell-based; conditions: all LgBiT and SmBiT tag orientations; FIGS. 1A-1D; HEK293T
T2 construct: BRD4 BD2 L387A mutant tag; LgBiT or SmBiT (NanoBiT subunit); expressed in transfected cells; host or cells: HEK293T
From the text: as §1
as §2, with “All summary figures were generated with GraphPad Prism. Data for the NanoBit assay is provided in FIGS. 1A-1D, 2A-2B, 3A-3B, 4A-4D, 5, 6A-6B, 7, and 12A-12C.” left out

T2 sequence (P62942 whole entry F37V, other chains not shown): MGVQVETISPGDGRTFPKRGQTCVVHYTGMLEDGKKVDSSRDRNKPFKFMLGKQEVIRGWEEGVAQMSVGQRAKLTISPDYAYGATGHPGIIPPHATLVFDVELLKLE

SMILES | max dimerization signal compared with DMSO (BromoTag) | max dimerization signal compared with FKBP12WT/FRB-rapamycin control (BromoTag) | max dimerization signal compared with FKBP12WT/FRB-rapamycin (sirolimus) control (FKBP12F36V and BromoTag)
CC[C@@H](C(=O)NCCCCCCNC(=O)[C@H](CC)[C@@H]1N=C(c2ccc(Cl)cc2)c2c(sc(C)c2C)-n2c(C)nnc21)[C@@H]1N=C(c2ccc(Cl)cc2)c2c(sc(C)c2C)-n2c(C)nnc21 [MMH-05-01-02, (2R,2′R)-N,N′-(hexane-1,6-diyl)bis(2-((S)-4-(4-chlorophenyl)-2,3,9-trimethyl-6H-thieno[3,2-f][1,2,4]triazolo[4,3-a][1,4]diazepin-6-yl)butanamide)] | improved max dimerization signal over DMSO; also recorded: in most NanoBiT tag orientations have improved signal over DMSO | significantly higher signal; also recorded: outperformed existing FKBP12WT/FRB-rapamycin heterodimerization system | 
CC[C@H](C(=O)N1CCCC[C@H]1C(=O)O[C@H](CCc1ccc(OC)c(OC)c1)c1cccc(OCC(=O)NCCCCCCNC(=O)[C@H](CC)[C@@H]2N=C(c3ccc(Cl)cc3)c3c(sc(C)c3C)-n3c(C)nnc32)c1)c1cc(OC)c(OC)c(OC)c1 [MMH-04-74, (R)-1-(3-(2-((6-((R)-2-((S)-4-(4-chlorophenyl)-2,3,9-trimethyl-6H-thieno[3,2-f][1,2,4]triazolo[4,3-a][1,4]diazepin-6-yl)butanamido)hexyl)amino)-2-oxoethoxy)phenyl)-3-(3,4-dimethoxyphenyl)propyl (S)-1-((S)-2-(3,4,5-trimethoxyphenyl)butanoyl)piperidine-2-carboxylate] |  |  | dramatically higher max dimerization signal
CC[C@@H](C(=O)NCCOCCOCCNC(=O)[C@H](CC)[C@@H]1N=C(c2ccc(Cl)cc2)c2c(sc(C)c2C)-n2c(C)nnc21)[C@@H]1N=C(c2ccc(Cl)cc2)c2c(sc(C)c2C)-n2c(C)nnc21 [MMH-05-01-03, (2R,2′R)-N,N′-((ethane-1,2-diylbis(oxy))bis(ethane-2,1-diyl))bis(2-((S)-4-(4-chlorophenyl)-2,3,9-trimethyl-6H-thieno[3,2-f][1,2,4]triazolo[4,3-a][1,4]diazepin-6-yl)butanamide)] | improved max dimerization signal over DMSO; also recorded: in most NanoBiT tag orientations have improved signal over DMSO | significantly higher signal; also recorded: outperformed existing FKBP12WT/FRB-rapamycin heterodimerization system | 
